Reference: ChEMBL document CHEMBL4311960, “Two optimized antimicrobial peptides with therapeutic potential for clinical antibiotic-resistant Staphylococcus aureus” (Eur J Med Chem, 2019)
The source made the active and inactive calls. No cut-off for these calls is given here.

What was measured:
Staphylococcus aureus [1] = assay: Disruption of membrane integrity in Staphylococcus aureus ATCC 25923 assessed as cell membrane damage at MIC incubated for 24 hrs by scanning electron microscopy; type: functional, organism-based
Staphylococcus aureus [2] = assay: Disruption of membrane integrity in methicillin-resistant Staphylococcus aureus ATCC 18466 assessed as invagination of cell membrane at MIC incubated for 24 hrs by scanning electron microscopy; type: functional, organism-based
Staphylococcus aureus [3] = assay: Inhibition of biofilm formation in Staphylococcus aureus ATCC 29213 assessed as downregulation of […] gene at MIC incubated for 1 hr by qRT-PCR; type: functional, organism-based
Staphylococcus aureus [4] = assay: Inhibition of biofilm formation in methicillin-resistant Staphylococcus aureus ATCC 19498 assessed as downregulation of hld gene at MIC incubated for 1 hr by qRT-PCR; type: functional, organism-based
Staphylococcus aureus [5] = assay: Antibacterial activity against methicillin-resistant Staphylococcus aureus ATCC 18466 assessed as reduction in bacterial growth incubated for 24 hrs by serial dilution method; type: functional; settings: ATCC 18466, 24 h, read-out: MIC
Staphylococcus aureus [6] = assay: Inhibition of biofilm formation in methicillin-resistant Staphylococcus aureus ATCC 19498 assessed as downregulation of mecA gene at MIC incubated for 1 hr by qRT-PCR; type: functional, organism-based
Staphylococcus aureus [7] = assay: Disruption of membrane integrity in Staphylococcus aureus ATCC 29213 assessed as invagination of cell membrane at MIC incubated for 24 hrs by scanning electron microscopy; type: functional, organism-based
Staphylococcus aureus [8] = assay: Disruption of membrane integrity in methicillin-resistant Staphylococcus aureus ATCC 19498 assessed as cell membrane damage at MIC incubated for 24 hrs by scanning electron microscopy; type: functional, organism-based
Staphylococcus aureus [9] = assay: Inhibition of biofilm formation in Staphylococcus aureus ATCC 29213 assessed as downregulation of hld gene at MIC incubated for 1 hr by qRT-PCR; type: functional, organism-based
Staphylococcus aureus [10] = assay: Disruption of membrane integrity in Staphylococcus aureus ATCC 25923 assessed as shrinking of cell membrane at MIC incubated for 24 hrs by scanning electron microscopy; type: functional, organism-based
Staphylococcus aureus [11] = assay: Disruption of membrane integrity in methicillin-resistant Staphylococcus aureus ATCC 18466 assessed as perforation of cell membrane at MIC incubated for 24 hrs by scanning electron microscopy; type: functional, organism-based
Staphylococcus aureus [12] = assay: Inhibition of biofilm formation in Staphylococcus aureus ATCC 25923 at MIC incubated for 24 hrs by scanning electron microscopy; type: functional, organism-based
Staphylococcus aureus [13] = assay: Inhibition of biofilm formation in methicillin-resistant Staphylococcus aureus ATCC 18466 assessed as downregulation of spa gene at MIC incubated for 1 hr by qRT-PCR; type: functional, organism-based
Streptococcus mutans = assay: Antibacterial activity against Streptococcus mutans UA159 assessed as reduction in bacterial growth incubated for 24 hrs by serial dilution method; type: functional; settings: UA159, 24 h, read-out: MIC
Staphylococcus aureus [14] = assay: Inhibition of biofilm formation in Staphylococcus aureus ATCC 25923 assessed as downregulation of hld gene at MIC incubated for 1 hr by qRT-PCR; type: functional, organism-based
Staphylococcus aureus [15] = assay: Disruption of membrane integrity in Staphylococcus aureus ATCC 29213 assessed as extravasation of cytoplasmic content at MIC incubated for 24 hrs by scanning electron microscopy; type: functional, organism-based
Staphylococcus aureus [16] = assay: Inhibition of biofilm formation in Staphylococcus aureus ATCC 29213 assessed as downregulation of mecA gene at MIC incubated for 1 hr by qRT-PCR; type: functional, organism-based
Staphylococcus aureus [17] = assay: Disruption of membrane integrity in Staphylococcus aureus ATCC 25923 assessed as perforation of cell membrane at MIC incubated for 24 hrs by scanning electron microscopy; type: functional, organism-based
Staphylococcus aureus [18] = assay: Disruption of membrane integrity in Staphylococcus aureus ATCC 29213 assessed as shrinking of cell membrane at MIC incubated for 24 hrs by scanning electron microscopy; type: functional, organism-based

Row | Substance | Activity (Staphylococcus aureus [1]) | Activity (Staphylococcus aureus [2]) | inhibition (Staphylococcus aureus [3]) | inhibition (Staphylococcus aureus [4]) | MIC (Staphylococcus aureus [5]) | inhibition (Staphylococcus aureus [6]) | Activity (Staphylococcus aureus [7]) | Activity (Staphylococcus aureus [8]) | inhibition (Staphylococcus aureus [9]) | Activity (Staphylococcus aureus [10]) | Activity (Staphylococcus aureus [11]) | inhibition (Staphylococcus aureus [12]) | inhibition (Staphylococcus aureus [13]) | MIC (Streptococcus mutans) | inhibition (Staphylococcus aureus [14]) | Activity (Staphylococcus aureus [15]) | inhibition (Staphylococcus aureus [16]) | Activity (Staphylococcus aureus [17]) | Activity (Staphylococcus aureus [18])
1 | H-SYERKINRHFKTLKKNLKKK-NH2 | Active | Active | Active | Active | 16 µg/mL | inactive | Active | Active | Active | Active | Active | Active | Active | < 64 µg/mL | Active | Active | inactive | Active | Active
2 | H-YIRKIRRFFKKLKKILKK-NH2 | Active | Active | Active | Active | 8 µg/mL | inactive | Active | Active | Active | Active | Active | Active | Active | 64 µg/mL | Active | Active | inactive | Active | Active
